Experiment [1] relates to iNOS activity in rat primary astrocytes. Briefly: iNOS activity (arginine to citrulline) in homogenates of treated rat primary astrocytes. The format is cell-based. The note with it: 10 μM. The protocol: NOS activity was measured directly by production of L-[2,3,4,5-^3H]citrulline from L-[2,3,4,5-^3H] arginine (Feinstein et al., 1994a). […] Assays were carried out for 30 to 40 min and the production of L-[2,3,4,5-^3H] citrulline was linear. The reactions were stopped by addition of 800 μl of ice-cold 20 mM HEPES (pH 5.5) followed by addition of 2 ml of Dowex-50W equilibrated in the same buffer. The samples were then centrifuged and the concentration of L-[^3H]citrulline was determined in the supernatant by liquid scintillation counting.
Dose Dependence of Forskolin Inhibition of the LPS Stimulation of iNOS Astrocytes were incubated with different concentrations of forskolin 15 min before the addition of 1 μg/ml LPS, and after 24 h the iNOS activity was measured as nitrite concentrations in the supernatant and conversion of arginine to citrulline in the cellular homogenates (FIG. 1). The level of nitrite and iNOS activity were inhibited to a similar degree at all the concentrations of forskolin tested. […] . […] This may be due to the fact that PKA was already completely activated in extracts of cells incubated with 10 μM forskolin. The PKA activity increased with the increase in forskolin concentration. The reciprocal relationship of production of NO and iNOS activity with PKA activity supports the conclusion that PKA plays a pivotal role in the regulation of iNOS expression in astrocytes.

Experiment [2] has as its system control human skin fibroblasts. Put plainly: β-oxidation of lignoceric acid in control human skin fibroblasts. The format is cell-based.
Experiment [3] relates to cultured skin fibroblasts of X-ALD. Briefly: VLCFA ratios (C26:0/C22:0, C24:0/C22:0) in X-ALD skin fibroblasts. It counts as cell-based, human. The note with it: about 15 days of treatment.
For another experiment, the system named is NF-kβ. It counts as cell-based, rat. As to conditions: LPS 1.0 μg/ml, 1 h. The protocol: Preparation of Nuclear Extracts and Electrophoretic Mobility shift assay Nuclear extracts from stimulated or unstimulated astrocytes (1×10^7 cells) were prepared using the method of Dignam et al. (1983) with slight modification. Cells were harvested, washed twice with ice-cold phosphate-buffered saline and lysed in 400 μl of buffer A (10 mM HEPES, pH 7.9, 10 mM KCl, 2 mM MgCl2, 0.5 mM DTT, 1 mM PMSF, 5 μg/ml aprotinin, 5 μg/ml pepstatin A, and 5 μg/ml leupeptin (Sigma, St. Louis, Mo.) containing 0.1% Nondet P-40 for 15 min on ice, vortexed vigorously for 15 s, and centrifuged at 14,000 rpm for 30 s. The pelleted nuclei were resuspended in 40 μl of buffer B (20 mM HEPES, pH 7.9, 25% (v/v) glycerol, 0.42 M NaCl, 1.5 mM MgCl2, 0.2 mM EDTA, 0.5 mM DTT, 1 mM PMSF, 5 μg/ml aprotinin, 5 μg/ml pepstatin A, and 5 μg/ml leupeptin). After 30 min on ice, lysates were centrifuged at 14,000 rpm for 10 min. Supernatants containing the nuclear proteins were diluted with 20 μl of modified buffer C (20 mM HEPES, pH 7.9, 20% (v/v) glycerol, 0.05 M KCl, 0.2 mM EDTA, 0.5 mM DTT, and 0.5 mM PMSF) and stored at −70° C. until use. Nuclear extracts were used for the electrophoretic mobility shift assay using the NF-kβ DNA binding protein detection system kit (GIBCO/BRL), according to the manufacturer's protocol.
Preparation of nuclear extracts and electrophoretic mobility shift assay Nuclear extracts from stimulated or unstimulated astrocytes (1×10^7 cells) were prepared as described (Dignam et al., 1983) with slight modification. Cells were harvested, washed twice with ice-cold phosphate-buffered saline and lysed in 400 μl of buffer A (10 mM HEPES, pH 7.9, 10 mM KCl, 2 mM MgCl2, 0.5 mM DTT, 1 mM PMSF, 5 μg/ml aprotinin, 5 μg/ml pepstatin A, and 5 μg/ml leupeptin) containing 0.1% Nonidet P40 for 15 min on ice, vortexed vigorously for 15 s, and centrifuged at 14,000 rpm for 30 s. […]

The structures appear in SMILES notation.

As for `C=C[C@@]1(C)CC(=O)[C@@H]2[C@@]3(C)CCCC(C)(C)[C@@H]3[C@H](O)[C@H](OC(C)=O)[C@@]2(C)O1` [dideoxyforskolin, 1,9-dideoxyforskolin], the “LPS induced iNOS activity and PKA activity” value in experiment [1] was “neither inhibited the LPS induced iNOS activity nor stimulated the PKA activity”. For the same compound, the “Lignoceric acid β-oxidation” value in experiment [2] came out at 571.4 ± 39.6 pmol/h/mg protein. Also, in experiment [3], the “ratios of C26:0/C22:0 and C24:0/C22:0 / level of VLCFA” value is “had no effect on the ratios of C26:0/C22:0 and C24:0/C22:0”.

For `COc1cccc(-c2cc(=O)c3ccccc3o2)c1N` [PD 98059], in the experiment on NF-kβ, the “LPS-induced activation of NF-kβ” value was “inhibits the LPS-induced activation of NF-kB and the induction of iNOS in astrocytes”.

For the origin of these results see patent publication US8507219B2, “Method of treating inflammation with statins” (MUSC Foundation for Research Development, priority 1997, dated 2013).
